Laboratory results reported in patent US8865706B2, “Heteroaryl-substituted hexahydropyrano[3,4-d][1,3]thiazin-2-amine compounds” (Pfizer Inc., priority 2013, dated 2014).

Legend:
[1] = molecular target: BACE1 enzyme (Homo sapiens (Human), UniProt P56817); test: BACE1 Cell-Free Assay (fluorescence polarization, cleavage of synthetic APP substrate); format: biochemical; details: average of 2 determinations; values marked b: geometric mean of 3-9 determinations
Description: This assay measures the inhibition of the beta-secretase enzyme as it cleaves a non-native peptide.
A synthetic APP substrate that can be cleaved by beta-secretase having N-terminal biotin and made fluorescent by the covalent attachment of Oregon Green at the Cys residue is used to assay beta-secretase activity in the presence or absence of the inhibitory compounds. […] The BACE1 enzyme is affinity purified material from conditioned media of CHO-K1 cells that have been transfected with a soluble BACE construct (BACE1deltaTM96His). Compounds are incubated in a ½ log dose response curve from a top concentration of 100 μM with BACE1 enzyme and the biotinylated fluorescent peptide in 384-well black plates (Thermo Scientific #4318). BACE1 is at a final concentration of 0.1 nM with a final concentration of peptide substrate of 150 nM in a reaction volume of 30 μL assay buffer [100 mM sodium acetate, pH 4.5 (brought to pH with acetic acid), and 0.001% Tween-20]. Plates are covered and incubated for 3 hours at 37° C. The reaction is stopped with the addition of 30 μL of 1.5 μM Streptavidin (Pierce, #21125). After a 10 minute incubation at room temperature, plates are read on a PerkinElmer EnVision for fluorescence polarization (Ex485 nm/Em530 nm). The activity of the beta-secretase enzyme is detected by changes in the fluorescence polarization that occur when the substrate is cleaved by the enzyme.

[2] = system: sAPPβ levels in H4 human neuroglioma cells over-expressing the wild-type human APP695; test: Whole Cell Assay (In Vitro sAPPb Assay); format: cell-based; details: Homo sapiens, 18 hours treatment, average of 2 determinations, values marked b: geometric mean of 3-9 determinations
Experimental: Whole Cell Assay (In Vitro sAPPb Assay):
H4 human neuroglioma cells over-expressing the wild-type human APP695 are treated for 18 hours with compound in a final concentration 1% DMSO. sAPPβ levels are measured using TMB-ELISA with capture APP N-terminal antibody (Affinity BioReagents, OMA1-03132), wild-type sAPPβ specific reporter p192 (Elan), and tertiary anti rabbit-HRP (GE Healthcare).

BACE1 enzyme, sequence (P56817 46-457): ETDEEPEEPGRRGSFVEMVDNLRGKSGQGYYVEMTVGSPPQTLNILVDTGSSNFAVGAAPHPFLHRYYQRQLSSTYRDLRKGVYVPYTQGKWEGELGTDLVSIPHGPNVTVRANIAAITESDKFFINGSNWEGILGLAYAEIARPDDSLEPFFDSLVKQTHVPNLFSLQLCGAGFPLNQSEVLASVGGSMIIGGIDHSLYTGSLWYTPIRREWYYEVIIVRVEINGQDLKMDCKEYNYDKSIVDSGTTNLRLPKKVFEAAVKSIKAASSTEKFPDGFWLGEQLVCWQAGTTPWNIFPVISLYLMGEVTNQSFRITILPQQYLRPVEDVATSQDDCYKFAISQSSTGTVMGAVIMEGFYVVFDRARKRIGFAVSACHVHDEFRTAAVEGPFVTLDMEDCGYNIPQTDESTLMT

Compound	IC50 [1]	IC50 [2]
COc1cc([C@H]2C[C@H]3CSC(N)=N[C@@]3(c3ccc(F)cc3F)CO2)ccn1 [Example 25, (4aR,6R,8aS)-8a-(2,4-Difluorophenyl)-6-(2-methoxypyridin-4-yl)-4,4a,5,6,8,8a-hexahydropyrano[3,4-d][1,3]thiazin-2-amine]	384 nM	40.5 nM
COc1cncc([C@H]2C[C@H]3CSC(N)=N[C@@]3(c3ccc(F)cc3F)CO2)c1 [Example 26, (4aR,6R,8aS)-8a-(2,4-Difluorophenyl)-6-(5-methoxypyridin-3-yl)-4,4a,5,6,8,8a-hexahydropyrano[3,4-d][1,3]thiazin-2-amine]	1250 nM	62.6 nM
Cc1cc([C@H]2C[C@H]3CSC(N)=N[C@@]3(c3ccc(F)cc3F)CO2)ccn1 [Example 27, (4aR,6R,8aS)-8a-(2,4-Difluorophenyl)-6-(2-methylpyridin-4-yl)-4,4a,5,6,8,8a-hexahydropyrano[3,4-d][1,3]thiazin-2-amine]	221 nM	4.73 nM
NC1=N[C@@]2(c3ccc(F)cc3F)CO[C@@H](c3ccc4nccn4c3)C[C@H]2CS1 [Example 28, (4aR,6R,8aS)-8a-(2,4-Difluorophenyl)-6-(imidazo[1,2-a]pyridin-6-yl)-4,4a,5,6,8,8a-hexahydropyrano[3,4-d][1,3]thiazin-2-amine]	2150 nM	15.5 nM
Cc1cnc([C@@H]2C[C@@H]3CSC(N)=N[C@]3(c3ccc(F)cc3F)CO2)cn1 [Example C89, (4aS,6S,8aR)-8a-(2,4-difluorophenyl)-6-(5-methylpyrazin-2-yl)-4,4a,5,6,8,8a-hexahydropyrano[3,4-d][1,3]thiazin-2-amine]	36200 nM	1360 nM
